Test results reported in publication PMC6179904 (Developmental Cell, 2018).

Test system: Jurkat T-cells
Assay type: cell-based, human

Row | SMILES | LCK localization ratio (LR) at the immune synapse
1 | Nc1ncnc2c1c(-c1ccc(Oc3ccccc3)cc1)cn2C1CCCC1 [LCK inhibitor (CAS 213743-31-8)] | 1.05
2 | CCOC(=O)N1CCC(Nc2c(NCCN3CCN(c4cccc(C(F)(F)F)c4)CC3)c(=O)c2=O)CC1 [squarunkin A] | 0.94
